# Measurements reported in patent US9896441B2 (Lycera Corporation, priority 2014, dated 2018).
# What was measured:
# [1] = molecular target: T1, Gal4-RORγ-LBD (Homo sapiens, UniProt P51449); assay: Gal4-RORγ Luciferase Reporter Assay in HEK-293T Cells; assay type: cell-based; conditions: HEK-293 cells, luciferase reporter; for Gal4-RORγ Assay Max Response: maximum response
# T1 construct: expressed in transfected cells
# T1 sequence (P51449 269-508 limits assumed): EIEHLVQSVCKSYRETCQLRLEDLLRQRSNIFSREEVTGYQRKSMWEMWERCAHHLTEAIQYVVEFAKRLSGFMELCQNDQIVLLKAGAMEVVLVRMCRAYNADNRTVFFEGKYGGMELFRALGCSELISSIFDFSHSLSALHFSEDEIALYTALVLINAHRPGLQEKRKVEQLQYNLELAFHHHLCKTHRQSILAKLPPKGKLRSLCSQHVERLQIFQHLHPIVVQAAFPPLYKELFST
# Outline: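 Max Response was taken as the upper plateau of a 4-parameter logistic fit of luciferase signal, normalized to 100 for wells without ursolic acid or compound. Transiently Gal4-RORγ-LBD/Gal4-luc transfected HEK-293 cells carrying […] ursolic acid were incubated with test compounds (0.2% DMSO) overnight at 37 °C and read with One-Glo.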
# [2] = molecular target: T2, RORγ-LBD (Homo sapiens, UniProt P51449); assay: RORγ-Ligand Binding Domain (LBD) TR-FRET Assay; assay type: biochemical; conditions: for TR-FRET Assay Max Response: maximum response;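 for TR-FRET Assay Max Response: 665/615 nm signal ratio set to 100 without ursolic acid or test compound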
# T2 construct: made in house; host or cells: SF9 cells (baculovirus); used as diluted lysate
# T2 sequence (P51449 269-508 limits assumed): T1 sequence (P51449 269-508 limits assumed)
# Outline: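 Lysate from SF9 cells expressing His-RORγ-LBD is diluted to about 3 nM final in 50 mM Tris pH 7.0 assay buffer. A biotin-tagged SRC1 LXXLL peptide goes in at 200 nM final, plus ursolic acid at 2 μM final. Test compounds carry 1% DMSO final; signal read by TR-FRET.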
EC50 ([1]; with ursolic acid),EC50 ([2]; RORγ-LBD TR-FRET),EC50 ([1]; in presence of ursolic acid),EC50 ([2]; RORγ-LBD TR-FRET assay),SMILES,Gal4-RORγ Assay Max Response ([1]; in presence of ursolic acid),TR-FRET Assay Max Response ([2]; RORγ-LBD TR-FRET assay)
,,< 500 nM,< 500 nM,"CCn1cc(S(=O)(=O)N2C[C@H](CCNC(C)=O)Oc3ccc(/C=C(\C)c4c(F)cccc4Cl)cc32)c(Cl)n1 [Example 116E, (S,E)-N-(2-(4-((3-chloro-1-ethyl-1H-pyrazol-4-yl)sulfonyl)-6-(2-(2-chloro-6-fluorophenyl)-prop-1-en-1-yl)-3,4-dihydro-2H-benzo[b][1,4]oxazin-2-yl)ethyl)acetamide]",** (a value in the range of greater than 90 to 150),*** (a value in the range of greater than 150 to 200)
,,500 to 5000 nM,< 500 nM,"COc1cc(S(=O)(=O)N2C[C@H](CCC(=O)O)Oc3ccc(/C=C(\C)C4CCCC4)cc32)ccc1F [Example 191A, (S,E)-3-(6-(2-cyclopentylprop-1-en-1-yl)-4-((4-fluoro-3-methoxyphenyl)sulfonyl)-3,4-dihydro-2H-benzo[b][1,4]-oxazin-2-yl)propanoic acid]",** (a value in the range of greater than 90 to 150),** (a value in the range of greater than 90 to 150)
,,500 to 5000 nM,< 500 nM,"CC/C(C)=C\c1ccc2c(c1)N(S(=O)(=O)c1cccc(C(F)(F)F)c1)C[C@H](CCC(=O)OC)O2 [Example 191C, methyl (S,Z)-3-(6-(2-methylbut-1-en-1-yl)-4-((3-(trifluoromethyl)phenyl)-sulfonyl)-3,4-dihydro-2H-benzo[b][1,4]oxazin-2-yl)propanoate]",** (a value in the range of greater than 90 to 150),**** (a value greater than 200)
,,< 500 nM,< 500 nM,"C/C(=C\c1ccc2c(c1)N(S(=O)(=O)c1cccc(C(F)(F)F)c1)C[C@H](NS(C)(=O)=O)C2)c1c(F)cccc1Cl [Example 116H, (R,E)-N-(7-(2-(2-chloro-6-fluorophenyl)prop-1-en-1-yl)-1-((3-(trifluoromethyl)phenyl)-sulfonyl)-1,2,3,4-tetra-hydroquinolin-3-yl)methanesulfonamide]",** (a value in the range of greater than 90 to 150),*** (a value in the range of greater than 150 to 200)
,,500 to 5000 nM,< 500 nM,"C/C(=C\c1ccc2c(c1)N(S(=O)(=O)c1cccc(C(F)(F)F)c1)C[C@H](NC(=O)C(C)(C)O)C2)c1c(F)cccc1Cl [Example 116F, (R,E)-N-(7-(2-(2-chloro-6-fluorophenyl)prop-1-en-1-yl)-1-((3-(trifluoromethyl)-phenyl)sulfonyl)-1,2,3,4-tetrahydroquinolin-3-yl)-2-hydroxy-2-methylpropanamide]",* (a value in the range of 30 to 90),*** (a value in the range of greater than 150 to 200)

# Further lines, the molecule ahead of its results:
SMILES,EC50 ([1]; with ursolic acid),EC50 ([2]; RORγ-LBD TR-FRET),EC50 ([1]; in presence of ursolic acid),EC50 ([2]; RORγ-LBD TR-FRET assay),Gal4-RORγ Assay Max Response ([1]; in presence of ursolic acid),TR-FRET Assay Max Response ([2]; RORγ-LBD TR-FRET assay)
"CCn1cc(S(=O)(=O)N2C[C@H]([C@H](C)O)Oc3ccc(/C=C(\C)c4c(F)cccc4Cl)cc32)c(Cl)n1 [Example 97, (S)-1-((R)-4-((3-Chloro-1-ethyl-1H-pyrazol-4-yl)sulfonyl)-6-((E)-2-(2-chloro-6-fluorophenyl)prop-1-en-1-yl)-3,4-dihydro-2H-benzo[b][1,4]oxazin-2-yl)ethan-1-ol]",< 500 nM,< 500 nM,,,,
"O=C(O)CC[C@H]1CN(S(=O)(=O)c2cccc(C(F)(F)F)c2)c2cc(/C=C/c3ncccc3Cl)ccc2O1 [Example 89BK, (S,E)-3-(6-(2-(3-chloropyridin-2-yl)vinyl)-4-((3-(trifluoromethyl)phenyl)sulfonyl)-3,4-dihydro-2H-benzo[b][1,4]oxazin-2-yl)propanoic acid]",< 500 nM,< 500 nM,,,,
"O=C(O)CC[C@H]1CN(S(=O)(=O)c2cccc(C(F)(F)F)c2)c2cc(/C=C/c3ncccc3F)ccc2O1 [Example 89CE, (S,E)-3-(6-(2-(3-fluoropyridin-2-yl)vinyl)-4-((3-(trifluoromethyl)phenyl)sulfonyl)-3,4-dihydro-2H-benzo[b][1,4]oxazin-2-yl)propanoic acid]",500 to 5000 nM,< 500 nM,,,,
"COC(=O)CC[C@H]1CN(S(=O)(=O)c2cccc(C(F)(F)F)c2)c2cc(/C=C/c3cccc(F)c3Cl)ccc2O1 [Example 89BQ, (S,E)-methyl 3-(6-(2-chloro-3-fluorostyryl)-4-((3-(trifluoromethyl)phenyl)sulfonyl)-3,4-dihydro-2H-benzo[b][1,4]oxazin-2-yl)propanoate]",500 to 5000 nM,< 500 nM,,,,
"CCOc1ncc(Cl)cc1S(=O)(=O)N1C[C@H](CCC(=O)O)Oc2ccc(/C=C/c3c(F)cccc3Cl)cc21 [Example 89CX, (S,E)-3-(4-((5-chloro-2-ethoxypyridin-3-yl)sulfonyl)-6-(2-chloro-6-fluorostyryl)-3,4-dihydro-2H-benzo[b][1,4]oxazin-2-yl)propanoic acid]",500 to 5000 nM,< 500 nM,,,,
"COC(=O)CC[C@H]1CN(S(=O)(=O)c2cccc(C(F)(F)F)c2)c2cc(/C=C(\C)c3c(Cl)cccc3Cl)ccc2O1 [Example 86AF, (S,E)-methyl 3-(6-(2-(2,6-dichlorophenyl)prop-1-en-1-yl)-4-((3-(trifluoromethyl)phenyl)-sulfonyl)-3,4-dihydro-2H-benzo[b][1,4]oxazin-2-yl)propanoate]",500 to 5000 nM,< 500 nM,,,,
"CCOc1nn(CC)cc1S(=O)(=O)N1C[C@H](CCC(=O)O)Oc2ccc(/C=C/c3cccc(OC)n3)cc21 [Example 89S, (S,E)-3-(4-((3-ethoxy-1-ethyl-1H-pyrazol-4-yl)sulfonyl)-6-(2-(6-methoxypyridin-2-yl)vinyl)-3,4-dihydro-2H-benzo[b][1,4]-oxazin-2-yl)propanoic acid]",> 10000 nM,500 to 5000 nM,,,,
"C/C(=C\c1ccc2c(c1)N(S(=O)(=O)c1cccc(C(F)(F)F)c1)C[C@H](CC(=O)O)O2)c1c(F)cccc1Cl [Example 107, (S,E)-2-(6-(2-(2-Chloro-6-fluorophenyl)prop-1-en-1-yl)-4-((3-(trifluoromethyl)phenyl)sulfonyl)-3,4-dihydro-2H-benzo[b][1,4]oxazin-2-yl)acetic acid]",,,500 to 5000 nM,< 500 nM,** (a value in the range of greater than 90 to 150),** (a value in the range of greater than 90 to 150)
"COC(=O)CC[C@H]1CN(S(=O)(=O)c2cc(C(F)(F)F)cnc2OC[C@H](C)O)c2cc(/C=C/c3c(F)cccc3Cl)ccc2O1 [Example 89FN, methyl 3-((S)-6-((E)-2-chloro-6-fluorostyryl)-4-((2-((S)-2-hydroxypropoxy)-5-(trifluoromethyl)pyridin-3-yl)sulfonyl)-3,4-dihydro-2H-benzo[b][1,4]oxazin-2-yl)propanoate]",500 to 5000 nM,< 500 nM,,,,
"C/C(=C\c1ccc2c(c1)N(S(=O)(=O)c1cccc(C(F)(F)F)c1)C[C@H](CCC(=O)N1CCCC1)O2)c1c(F)cccc1Cl [Example 126, (S,E)-3-(6-(2-(2-Chloro-6-fluorophenyl)prop-1-en-1-yl)-4-((3-(trifluoromethyl)phenyl)sulfonyl)-3,4-dihydro-2H-benzo[b][1,4]oxazin-2-yl)-1-(pyrrolidin-1-yl)propan-1-one]",,,< 500 nM,< 500 nM,** (a value in the range of greater than 90 to 150),** (a value in the range of greater than 90 to 150)
